In article PMC5647113 (Circulation. Arrhythmia and electrophysiology, 2017):

Assays:
hERG (KV11.1) = hERG (KV11.1) (Homo sapiens, UniProt Q12809); experiment: automated patch clamp; format: cell-based
hSK3 (KCa2.3) = hSK3 (KCa2.3) (Homo sapiens, UniProt Q9UGI6); experiment: automated whole-cell patch clamp; format: cell-based
Sequence of hSK3 (KCa2.3) (Q9UGI6 whole entry): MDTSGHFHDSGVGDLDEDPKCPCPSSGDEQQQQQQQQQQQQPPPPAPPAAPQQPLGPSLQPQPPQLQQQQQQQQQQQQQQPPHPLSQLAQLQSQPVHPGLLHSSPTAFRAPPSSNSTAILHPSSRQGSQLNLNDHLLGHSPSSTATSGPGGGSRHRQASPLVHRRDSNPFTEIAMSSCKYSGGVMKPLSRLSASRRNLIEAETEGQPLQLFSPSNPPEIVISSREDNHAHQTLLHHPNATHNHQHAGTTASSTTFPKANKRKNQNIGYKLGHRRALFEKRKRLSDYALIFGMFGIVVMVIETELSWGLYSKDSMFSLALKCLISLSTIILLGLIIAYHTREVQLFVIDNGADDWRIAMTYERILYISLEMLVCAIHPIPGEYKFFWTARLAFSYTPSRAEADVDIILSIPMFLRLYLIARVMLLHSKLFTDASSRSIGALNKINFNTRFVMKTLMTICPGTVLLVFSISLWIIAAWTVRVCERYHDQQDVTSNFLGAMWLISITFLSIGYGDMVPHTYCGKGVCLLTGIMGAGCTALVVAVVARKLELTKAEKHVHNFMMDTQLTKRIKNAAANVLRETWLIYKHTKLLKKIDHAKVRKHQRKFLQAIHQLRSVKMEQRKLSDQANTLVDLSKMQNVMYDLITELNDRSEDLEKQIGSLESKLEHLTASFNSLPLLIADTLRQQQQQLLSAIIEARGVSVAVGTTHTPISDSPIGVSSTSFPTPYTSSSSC

Sequence of hERG (KV11.1) (Q12809 whole entry): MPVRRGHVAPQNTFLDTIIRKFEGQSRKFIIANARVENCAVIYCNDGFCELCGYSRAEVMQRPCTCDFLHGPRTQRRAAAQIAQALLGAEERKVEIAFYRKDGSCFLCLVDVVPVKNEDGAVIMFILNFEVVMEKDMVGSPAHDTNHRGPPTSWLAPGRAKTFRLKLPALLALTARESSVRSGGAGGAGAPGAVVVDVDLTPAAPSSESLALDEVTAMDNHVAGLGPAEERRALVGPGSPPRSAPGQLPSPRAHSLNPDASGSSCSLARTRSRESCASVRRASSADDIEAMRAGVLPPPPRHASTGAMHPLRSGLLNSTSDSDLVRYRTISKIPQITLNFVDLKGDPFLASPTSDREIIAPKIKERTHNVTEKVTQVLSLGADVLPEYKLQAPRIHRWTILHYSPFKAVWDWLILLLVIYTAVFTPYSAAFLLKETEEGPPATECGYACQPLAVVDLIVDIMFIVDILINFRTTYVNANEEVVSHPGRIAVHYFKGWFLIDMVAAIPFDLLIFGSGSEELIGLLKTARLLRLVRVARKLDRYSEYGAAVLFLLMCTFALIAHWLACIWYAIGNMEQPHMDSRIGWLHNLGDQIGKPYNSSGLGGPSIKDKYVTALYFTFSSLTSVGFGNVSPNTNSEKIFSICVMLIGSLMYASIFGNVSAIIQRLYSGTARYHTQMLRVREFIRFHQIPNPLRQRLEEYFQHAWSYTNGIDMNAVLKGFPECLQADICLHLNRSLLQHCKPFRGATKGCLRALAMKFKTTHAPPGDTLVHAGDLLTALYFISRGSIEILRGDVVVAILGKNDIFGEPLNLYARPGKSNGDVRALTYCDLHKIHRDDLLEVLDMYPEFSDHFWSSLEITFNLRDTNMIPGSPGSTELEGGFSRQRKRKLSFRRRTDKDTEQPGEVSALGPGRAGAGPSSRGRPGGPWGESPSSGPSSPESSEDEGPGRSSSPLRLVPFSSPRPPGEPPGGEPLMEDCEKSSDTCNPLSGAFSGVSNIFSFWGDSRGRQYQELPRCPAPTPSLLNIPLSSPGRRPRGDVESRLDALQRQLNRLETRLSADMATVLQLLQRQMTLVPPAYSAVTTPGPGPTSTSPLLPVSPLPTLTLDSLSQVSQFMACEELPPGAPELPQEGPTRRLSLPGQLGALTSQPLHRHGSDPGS

Compound `CC(=O)Nc1cccc2[nH]c(N[C@H](C)c3cccc(C(F)(F)F)c3)nc12` [AP14145, N-(2-{[(1R)-1-[3-(trifluoromethyl)phenyl]ethyl]amino}-1H-1,3-benzodiazol-4-yl)acetamide] has an IC50 (hERG (KV11.1)) of 71.8 ± 0.5 µM and an IC50 (hSK3 (KCa2.3)) of 1.3 ± 0.4 µM.
